Results: patent US20230414564A1, “BLUE LIGHT OXIDATION INHIBITOR AND SCREENING METHOD FOR SAME” (SHISEIDO COMPANY, LTD., priority 2020, published 2023)
Entries after “also recorded” stand apart in the source; their conditions may differ.

How the values were obtained:
[1] = DPPH radical scavenging rate (DPPH Antioxidant Assay Kit); conditions: 5 wt %, 1 wt % and 0.2 wt % aqueous solutions; 30 minutes at 25° C.; absorbance at 517 nm
Description: Methods for measuring oxidation inhibiting effects by radical scavenging rate evaluation are known. The present inventors therefore examined oxidation inhibiting effects of the aforementioned candidate substances at different concentrations, by the following procedure using a DPPH Antioxidant Assay Kit (Dojindo Laboratories).
The candidate substances of Example 1 were used as 5 wt %, 1 wt % and 0.2 wt % aqueous solutions. Blank 1, Blank 2, Sample and Sample Blank Solution listed in Table 3 were prepared by the manufacturer's protocol described in general below, and the radical scavenging rates were calculated.
• 1. Each candidate substance was loaded into a 96 well plate as a 5 wt %, 1 wt % or 0.2 wt % aqueous solution. • 2. Water was added to Blank 1 and Blank 2 at 20 μl each. • 3. Assay Buffer was added at 80 μl to each well. • 4. After adding 100 μl of ethanol to Blank 2 and the Sample blank, it was thoroughly mixed by pipetting. • After adding 100 μl of DPPH working solution to the sample and Blank1, it was thoroughly mixed by pipetting. • 6. The plate was incubated for 30 minutes at 25° C. in a dark environment. • 7. The absorbance at 517 nm was measured with a plate reader (Spectramax 250, Molecular Devices). • 8. The radical scavenging rate (%) of each sample was calculated by the following formula 3.
Radical scavenging rate (%)=[…]×100 Formula 3:
(ACS=Blank1−Blank2, AS=Sample−Sample Blank)

[2] = UPE count method (in vitro), linoleic acid mixture irradiated with blue light or UVA; conditions: for blue light oxidation-inhibiting effect (rate of change in blue light-induced UPE): 5 wt % aqueous solution of candidate in linoleic acid mixture, blue light 430 nm LED 6 mW/cm^2, 10 minutes, UPE integrated for 300 seconds; for inhibiting effect against blue light oxidation compared with inhibiting effect against oxidation by UVA (UPE): linoleic acid mixture, blue light 430 nm vs UVA 300 to 400 nm
Protocol: The candidate substances listed in Table 1 were added to ultrapure water to prepare 5 wt % aqueous solutions as samples.
The samples were prepared by mixing the substances in the following compositions with linoleic acid and oleic acid as biological components. As a control, ultrapure water was used instead of a 5% aqueous solution of the candidate substance.
A 2 mL portion of the sample prepared by the method described above was added to a plastic container and irradiated with 6 mW/cm^2 blue light (430 nm LED, CL-H1-430-9-1, Asahi Spectra Co., Ltd.) using an LED light source (CL-1501, Asahi Spectra Co., Ltd.), for a period of 10 minutes. The experiment was conducted while shielded, to exclude the effects of light of other wavelengths. For the control, ultrapure water was added instead of the starting material aqueous solution.
The irradiated sample was transferred to a quartz glass container and set in the black box of a photon counter (Tohoku Electronic Industrial Co.). Photon counting of UPE was initiated one minute after irradiation was complete. UPE was detected by a built-in photomultiplier tube (PMT, R2257P, Hamamatsu Photonics, K.K.) in the photon counter, with measurement being conducted while shielded.
The integrated value of UPE intensity for 300 seconds after the start of UPE measurement was determined and the rate of change in UPE was calculated by formula 2, to evaluate the oxidative stress inhibiting effect.
Rate of change in UPE=(UPE intensity of material added sample−UPE intensity of control sample (non-irradiated))−(UPE intensity of control sample−UPE intensity of control sample (non-irradiated)) Formula 2: […]

human skin tissue = experiment: Measurement of oxidative stress by UPE imaging on human skin tissue; conditions: 20 μL of 5% aqueous solution on stratum corneum side, 40 minutes; blue light 430 nm 6 mW/cm^2, 10 minutes
Protocol: A 20 μL aqueous solution of 5% hypotaurine was applied to the center of the stratum corneum side of human skin tissue (KAC Co., dorsal region), and allowed to stand for 40 minutes while shielded.
After irradiation with blue light (430 nm LED, 6 mW/cm^2) for 10 minutes, the hypotaurine aqueous solution was wiped off and immediately observed by UPE imaging using a high-sensitivity cooled CCD camera (850S CCD42-40, Spectral Instruments Inc.), while shielded (photographing time: 10 minutes).

[3] = UPE count method (in vitro), linoleic acid mixture irradiated with blue light or UVA; conditions: 5 wt % aqueous solution in linoleic acid mixture; UVA lamp 300 to 400 nm 3.5 mW/cm^2

Structure (SMILES): NCCS(=O)O [hypotaurine, Hypotaurine]
- DPPH radical scavenging power (radical scavenging rate) [1]: high radical scavenging power
- blue light oxidation-inhibiting effect (rate of change in blue light-induced UPE) [2]: high inhibiting effect against blue light oxidation; also recorded: excellent blue light oxidation-inhibiting effects
- inhibiting effect against blue light oxidation compared with inhibiting effect against oxidation by UVA (UPE) [2]: higher than the inhibiting effect against oxidation by UVA
- UPE intensity after blue light irradiation (UPE imaging) (human skin tissue): lowered

Structure (SMILES): NCCS(=O)(O)=S [thiotaurine, Thiotaurine]
- DPPH radical scavenging power (radical scavenging rate) [1]: High radical scavenging power was not observed
- blue light oxidation-inhibiting effect (rate of change in blue light-induced UPE) [2]: high inhibiting effect against blue light oxidation; also recorded: excellent blue light oxidation-inhibiting effects
- inhibiting effect against blue light oxidation compared with inhibiting effect against oxidation by UVA (UPE) [2]: higher than the inhibiting effect against oxidation by UVA

Structure (SMILES): O=C1O[C@H]([C@@H](O)CO)C(O)=C1O[C@H]1O[C@H](CO)[C@@H](O)[C@H](O)[C@H]1O [L-ascorbic acid glucoside, L-Ascorbic acid glucoside, reference compound]
- DPPH radical scavenging power (radical scavenging rate) [1]: high radical scavenging power
- blue light oxidation-inhibiting effect (rate of change in blue light-induced UPE) [2]: not found to have significant blue light oxidation-inhibiting effects
- blue light oxidation-inhibiting effect (rate of change in blue light-induced UPE) ([2]; listed as ascorbic acid glucoside): little of the blue light oxidation-inhibiting effect

Structure (SMILES): CC(C)(CO)[C@@H](O)C(=O)NCCC(=O)NCCSS(=O)(=O)[O-].CC(C)(CO)[C@@H](O)C(=O)NCCC(=O)NCCSS(=O)(=O)[O-].[Ca+2] [calcium pantetheine-S-sulfonate]
- DPPH radical scavenging power (radical scavenging rate) [1]: High radical scavenging power was not observed
- UV oxidation inhibiting effect (rate of change in UV light-induced UPE) [3]: UV oxidation inhibiting effect was found
- blue light oxidation-inhibiting effect (rate of change in blue light-induced UPE) [2]: high blue light oxidation-inhibiting effect; also recorded: excellent blue light oxidation-inhibiting effects

Structure (SMILES): N[C@@H](CS)C(=O)O [L-cysteine, L-Cysteine, reference compound]
- DPPH radical scavenging power (radical scavenging rate) [1]: high radical scavenging power
- blue light oxidation-inhibiting effect (rate of change in blue light-induced UPE) [2]: not found to have significant blue light oxidation-inhibiting effects
- blue light oxidation-inhibiting effect (rate of change in blue light-induced UPE) ([2]; listed as cysteine): little of the inhibiting effect against blue light oxidation

Structure (SMILES): O=C1O[C@H]([C@@H](O)CO)C(O)=C1O [L(+)-ascorbic acid, L(+)-Ascorbic acid]
- DPPH radical scavenging power (radical scavenging rate) [1]: high radical scavenging power
- blue light oxidation-inhibiting effect (rate of change in blue light-induced UPE) [2]: high blue light oxidation-inhibiting effect; also recorded: excellent blue light oxidation-inhibiting effects
